{"source": "patent EP4785945A1", "about": "“THERAPEUTIC AGENT FOR RHEUMATOID ARTHRITIS” (Teijin Pharma Limited, priority 2023, dated 2025)", "key": {"[1]": {"tested_on": "rheumatoid arthritis patients", "test": "Clinical trial on rheumatoid arthritis patients: safety", "assay_type": "in vivo, humans", "protocol": "(§1) Compound 1 was orally administered at dosages of 10, 25, 75, or 175 mg once daily for seven days (double-blind study) to 32 rheumatoid arthritis patients (six patients for each dosage of Compound 1 administration, and two patients for each dosage of placebo administration).\n(§2) Endpoints included: items related to disease activity and pain (DAS28-CRP, ACR20, VAS scale pain score, and TJC) to represent efficacy; vital signs (blood pressure, pulse, body temperature, and respiratory rate), physical findings, electrocardiograms, hematological tests, blood biochemistry tests, and the severity and frequency of adverse events to represent safety; and changes in the plasma concentration of Compound 1 to represent pharmacokinetics (PK)."}, "[2]": {"test": "Clinical trial on rheumatoid arthritis patients: pharmacokinetics (plasma concentration)", "assay_type": "in vivo, humans", "conditions": "human, Day 7 after administration", "protocol": "as §1, §2"}, "[3]": {"tested_on": "granulocyte macrophage colony-stimulating factor (GM-CSF)", "test": "GM-CSF secretion by synovial cells stimulated with TNF-α and IL-1β", "assay_type": "cell-based", "conditions": "relative to baseline after TNF-α and IL-1β stimulation without Compound 1, read-out: suppression of GM-CSF secretion", "protocol": "(§3) The synovial cells used in the test were derived from rheumatoid arthritis patients. The synovial cells were stimulated with tumor necrosis factor-α (TNF-α) and interleukin-1β (IL-1β) at the time of the test, and the effect of Compound 1 was measured. […] Furthermore, with regard to matrix metalloproteinase-3 (MMP-3), which is a mediator involved in tissue destruction, relative to a baseline after TNF-α and IL-1β stimulation without any added Compound 1, Compound 1 suppressed secretion in a dosage-dependent manner, by 14% when 10 nM was added, 21% when 30 nM was added, 37% when 100 nM was added, 60% when 300 nM was added, and 63% when 1000 nM was added."}, "synovial cells": {"tested_on": "synovial cells", "test": "Proliferation of synovial cells stimulated with TNF-α and IL-1β", "assay_type": "cell-based", "conditions": "Synovial cell, relative to baseline after TNF-α and IL-1β stimulation without Compound 1, read-out: suppression of proliferation of synovial cells", "protocol": "as §3"}, "[4]": {"tested_on": "rheumatoid arthritis patients", "test": "Clinical trial on rheumatoid arthritis patients: efficacy (ACR20, DAS28-CRP, VAS scale pain score, TJC)", "assay_type": "in vivo, humans", "protocol": "as §1, §2\nDAS28-CRP was used to determine whether there was improvement or no improvement based on the differences between the values on Day 1 and Day 7 of administration, in accordance with the criteria shown in Table 1 (EULAR criteria).\nACR20 was used to determine whether there was an improvement based on the ACR20 on Day 1 and Day 7 of administration.\nThe percentage change in the VAS scale pain score is the percentage change in the score on Day 7 compared to the score on Day 1.\nThe percentage change in the TJC score is the percentage change in the value on Day 7 compared to the value on Day 1."}, "[5]": {"tested_on": "mouse anti-collagen antibody-induced arthritis (CAIA) model", "test": "Combination study with etanercept, Arthritis Score", "assay_type": "in vivo", "conditions": "Compound 1 alone, 50 mg/kg/day", "protocol": "The effect of combining Compound 1 with etanercept was measured using a mouse anti-collagen antibody-induced arthritis (CAIA) model. The effect was evaluated using the Arthritis Score. […] Compared to the control, the scores decreased by 64% when only Compound 1 was used, by 62% when only etanercept was used, and by 97% when Compound 1 and etanercept were used in combination."}, "[6]": {"tested_on": "rat adjuvant-induced arthritis (AIA) model", "test": "Combination study with methotrexate, Arthritis Score", "assay_type": "in vivo", "protocol": "The effect of combining Compound 1 with methotrexate was measured using a rat adjuvant-induced arthritis (AIA) model. The effect was evaluated using the Arthritis Score. […] Compared to the control, the scores decreased by 33% when only Compound 1 was used, by 59% when only methotrexate was used, and by 86% when Compound 1 and methotrexate were used in combination. On the other hand, in this study, there was no decrease in the number of bone marrow cells even when Compound 1 and methotrexate were used in combination."}, "[7]": {"tested_on": "synovial cells and bone marrow cells", "assay_type": "in vitro ADME", "protocol": "Cultured synovial cells and bone marrow cells were used. Compound 1 was added, and the intracellular concentration in the synovial cells and bone marrow cells and the concentration in the culture medium were measured."}, "rat AIA model": {"tested_on": "rat AIA model", "test": "Combination study with tofacitinib, Arthritis Score", "assay_type": "in vivo", "conditions": "30 mg/kg/day", "protocol": "The effect of combining compound 1 with tofacitinib was measured using a rat AIA model. The effect was evaluated using the Arthritis Score."}, "[8]": {"tested_on": "matrix metalloproteinase-3 (MMP-3)", "test": "MMP-3 secretion by synovial cells stimulated with TNF-α and IL-1β", "assay_type": "cell-based", "conditions": "Synovial cell, relative to baseline after TNF-α and IL-1β stimulation without Compound 1, read-out: suppression of MMP-3 secretion", "protocol": "as §3"}, "[9]": {"conditions": "package insert; cited from earlier work"}, "[10]": {"conditions": "Day 1 to Day 7 of administration and three-day follow-up (up to Day 10)"}, "[11]": {"conditions": "all administration groups (10 to 175 mg)"}, "[12]": {"conditions": "25 mg, 75 mg, and 175 mg administration groups, Day 7 compared to Day 1"}, "[13]": {"conditions": "75 mg administration group, Day 7 compared to Day 1"}}}
{"smiles": "CC(C)Nc1nc([C@@H](C)O)cc2cnc(Nc3ccc(N4CCNCC4=O)cn3)nc12", "note": "[Compound 1, (R)-1-(6-((6-(1-hydroxyethyl)-8-(isopropylamino)pyrido[3,4-d]pyrimidin-2-yl)amino)pyridin-3-yl)piperazin-2-one]", "values": [{"measurement": "adverse events, cases (events)", "setting": "[1]; 10 mg administration group", "value": "two cases (five events)"}, {"measurement": "adverse events, cases (events)", "setting": "[1]; 25 mg administration group", "value": "two cases (three events)"}, {"measurement": "adverse events, cases (events)", "setting": "[1]; 75 mg administration group", "value": "two cases (three events)"}, {"measurement": "adverse events, cases (events)", "setting": "[1]; 175 mg administration group", "value": "one case (one event)"}, {"measurement": "neutropenia or decrease in neutrophil count", "setting": "[1]; [10]", "value": "no neutropenia or decrease in neutrophil count"}, {"measurement": "neutrophil count", "setting": "[1]; [10]", "value": "maintained a constant neutrophil count"}, {"measurement": "severe adverse events", "setting": "[1]; [11]", "value": "no severe adverse events"}, {"measurement": "severity of adverse events", "setting": "[1]; [11]", "value": "mild to moderate"}, {"measurement": "changes in vital signs, electrocardiograms, physical findings, hematological tests, or blood biochemistry tests", "setting": "[1]; any dosage (10, 25, 75, 175 mg once daily, seven days)", "value": "No significant changes"}, {"measurement": "half-life at 168 h", "setting": "[2]; 10 mg once daily oral", "value": 12.9, "unit": "h"}, {"measurement": "half-life at 168 h", "setting": "[2]; 25 mg once daily oral", "value": 11.9, "unit": "h"}, {"measurement": "half-life at 168 h", "setting": "[2]; 75 mg once daily oral", "value": 14.6, "unit": "h"}, {"measurement": "half-life at 168 h", "setting": "[2]; 175 mg once daily oral", "value": 10.4, "unit": "h"}, {"measurement": "inhibition at 0.008 µM", "setting": "[3]; 8 nM", "value": 17, "unit": "%"}, {"measurement": "inhibition at 0.04 µM", "setting": "[3]; 40 nM", "value": 25, "unit": "%"}, {"measurement": "inhibition at 0.2 µM", "setting": "[3]; 200 nM", "value": 48, "unit": "%"}, {"measurement": "inhibition at 1 µM", "setting": "[3]; 1000 nM", "value": 65, "unit": "%"}, {"measurement": "inhibition at 0.01 µM", "setting": "synovial cells; 10 nM", "value": 5, "unit": "%"}, {"measurement": "inhibition at 0.03 µM", "setting": "synovial cells; 30 nM", "value": 14, "unit": "%"}, {"measurement": "inhibition at 0.1 µM", "setting": "synovial cells; 100 nM", "value": 19, "unit": "%"}, {"measurement": "inhibition at 0.3 µM", "setting": "synovial cells; 300 nM", "value": 27, "unit": "%"}, {"measurement": "inhibition at 1 µM", "setting": "synovial cells; 1000 nM", "value": 35, "unit": "%"}, {"measurement": "percentages of subjects who showed improvement in ACR20, compared with placebo group", "setting": "[4]; 25 mg, 75 mg, and 175 mg administration groups, once daily oral, seven days", "value": "higher than in the placebo group"}, {"measurement": "percentages of subjects who showed improvement in DAS28-CRP, compared with placebo group", "setting": "[4]; 25 mg, 75 mg, and 175 mg administration groups, once daily oral, seven days, EULAR criteria", "value": "higher than in the placebo group"}, {"measurement": "decreases in the TJC scores, compared with placebo group", "setting": "[4]; [12]", "value": "higher than in the placebo group"}, {"measurement": "decreases in the VAS scale pain scores, compared with placebo group", "setting": "[4]; [12]", "value": "higher than in the placebo group"}, {"measurement": "percentage of subjects who showed improvement in ACR20", "setting": "[4]; 75 mg administration group, once daily oral, seven days", "value": 60, "unit": "%"}, {"measurement": "percentage of subjects who showed improvement in DAS28-CRP", "setting": "[4]; 75 mg administration group, once daily oral, seven days, EULAR criteria", "value": 80, "unit": "%"}, {"measurement": "percentage change in the TJC score", "setting": "[4]; [13]", "value": -40, "unit": "%"}, {"measurement": "percentage change in the VAS scale pain score", "setting": "[4]; [13]", "value": -40, "unit": "%"}, {"measurement": "decrease of Arthritis Score compared to the control", "setting": "[5]", "value": 64, "unit": "%"}, {"measurement": "decrease of Arthritis Score compared to the control", "setting": "[6]; Compound 1 alone, 30 mg/kg/day", "value": 33, "unit": "%"}, {"measurement": "distribution ratio between synovial cells and bone marrow cells", "setting": "[7]", "value": "84:16"}, {"measurement": "decrease of Arthritis Score compared to the control", "setting": "rat AIA model; Compound 1 alone", "value": 40, "unit": "%"}, {"measurement": "inhibition at 0.01 µM", "setting": "[8]; 10 nM", "value": 14, "unit": "%"}, {"measurement": "inhibition at 0.03 µM", "setting": "[8]; 30 nM", "value": 21, "unit": "%"}, {"measurement": "inhibition at 0.1 µM", "setting": "[8]; 100 nM", "value": 37, "unit": "%"}, {"measurement": "inhibition at 0.3 µM", "setting": "[8]; 300 nM", "value": 60, "unit": "%"}, {"measurement": "inhibition at 1 µM", "setting": "[8]; 1000 nM", "value": 63, "unit": "%"}]}
{"smiles": "CCN1CCN(Cc2ccc(Nc3ncc(F)c(-c4cc(F)c5nc(C)n(C(C)C)c5c4)n3)nc2)CC1", "note": "[abemaciclib]", "values": [{"measurement": "incidence of the side effect of neutropenia", "setting": "[9]", "value": 42.2, "unit": "%"}]}
{"smiles": "CN(Cc1cnc2nc(N)nc(N)c2n1)c1ccc(C(=O)N[C@@H](CCC(=O)O)C(=O)O)cc1", "note": "[methotrexate, reference compound]", "values": [{"measurement": "decrease of Arthritis Score compared to the control", "setting": "[6]; methotrexate alone, 0.075 mg/kg/day", "value": 59, "unit": "%"}]}
{"smiles": "C[C@@H]1CCN(C(=O)CC#N)C[C@@H]1N(C)c1ncnc2[nH]ccc12", "note": "[tofacitinib, reference compound]", "values": [{"measurement": "decrease of Arthritis Score compared to the control", "setting": "rat AIA model; tofacitinib alone", "value": 67, "unit": "%"}]}
